In general, inhibition refers to the change of the read-out against control, counted positive when it falls.

In test [1] the target is T1, human recombinant adrenergic α1D receptor (Homo sapiens, UniProt P25100).
T1 construct: expressed in transfected cells; host or cells: human embryonic kidney (HEK-293) cells
T1 sequence (P25100 1-572): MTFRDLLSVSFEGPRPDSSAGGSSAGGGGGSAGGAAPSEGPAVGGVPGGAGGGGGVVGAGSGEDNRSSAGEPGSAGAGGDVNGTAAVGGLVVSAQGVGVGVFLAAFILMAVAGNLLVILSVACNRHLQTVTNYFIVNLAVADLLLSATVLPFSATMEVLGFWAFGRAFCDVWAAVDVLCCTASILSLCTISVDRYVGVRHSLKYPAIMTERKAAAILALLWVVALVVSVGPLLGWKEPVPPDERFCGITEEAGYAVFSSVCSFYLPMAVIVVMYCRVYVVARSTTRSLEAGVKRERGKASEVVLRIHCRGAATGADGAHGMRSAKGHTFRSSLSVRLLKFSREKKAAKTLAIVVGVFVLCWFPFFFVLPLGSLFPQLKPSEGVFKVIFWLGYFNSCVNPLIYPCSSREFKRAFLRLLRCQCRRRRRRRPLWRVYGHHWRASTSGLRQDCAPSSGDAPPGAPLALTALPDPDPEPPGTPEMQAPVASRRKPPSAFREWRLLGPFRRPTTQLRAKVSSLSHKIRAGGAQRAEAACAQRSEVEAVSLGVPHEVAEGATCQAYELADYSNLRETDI
As to the kind of experiment: Adrenergic α1D radioligand binding assay ([3H]Prozosin). Conditions: compound at 1 μM; 0.6 nM [3H]Prozosin; HEK-293 cells; read-out: Percent Inhibition of ligand binding, Adrenergic (1 μM) a1D. The method, then: Compounds of invention were incubated with 0.6 nM [^3H]Prozosin for 60 min at 25° C. Non-specific binding was estimated in the presence of 10 μM phentolamine Receptor proteins were filtered and washed, the filters were then counted to determine [^3H]Prozosin specifically bound.

In test [2] the target is human recombinant histamine H1 receptor (Homo sapiens, UniProt P35367). Description: Histamine H1 radioligand binding assay ([3H]Pyrilamine). Conditions: compound at 1 μM, receptor expressed in CHO cells. The procedure: To evaluate in radioligand binding assays the activity of compounds of the invention, human recombinant histamine H1 receptor expressed in Chinese hamster ovary (CHO) cells (De Backer, M. D. et al., Biochem. Biophys. Res. Comm. 197(3):1601, 1993) in a modified Tris-HCl buffer (50 mM Tris-HCl, pH 7.4, 2 mM MgCl2, 100 mM NaCl, 250 mM Sucrose) was used. Compounds of the invention were incubated with 1.2 nM [^3H]Pyrilamine for 180 min at 25° C. Non-specific binding was estimated in the presence of 1 μM pyrilamine Receptor proteins were filtered and washed, the filters were then counted to determine [^3H]Pyrilamine specifically bound. Compounds were screened at 1 μM or lower, using 1% DMSO as vehicle. Biochemical assay results are presented as the percent inhibition of specific binding in Table 2.

In test [3] the target is T2, human recombinant serotonin (5-Hydroxytryptamine) 5-HT2A receptor (Homo sapiens, UniProt P28223).
T2 construct: expressed in transfected cells; host or cells: Chinese hamster ovary (CHO-K1) cells
Description: Serotonin 5-HT2A radioligand binding assay ([3H]Ketanserin). Particulars: 0.5 nM [3H]Ketanserin, CHO-K1 cells; for Percent Inhibition of ligand binding, Serotonin (1 μM) 5-HT2A / inhibition at 1 µM: compound at 1 μM; for inhibition at 1 µM: read-out: Percent Inhibition of ligand binding, Serotonin (1 μM) 5-HT2A; for inhibition at 0.1 µM: compound at 0.1 μM, read-out: Percent Inhibition of ligand binding, Serotonin (0.1 μM) 5-HT2A. The method, then:
Compounds of the invention were incubated with 0.5 nM [^3H]Ketanserin for 60 min at 25° C. Non-specific binding was estimated in the presence of 1 μM Mianserin. Receptor proteins were filtered and washed, the filters were then counted to determine [^3H]Ketanserin specifically bound. Compounds were screened at 1 μM or lower, using 1% DMSO as vehicle. Biochemical assay results are presented as the percent inhibition of specific binding in Table 4.

Test [4] addresses human recombinant serotonin (5-Hydroxytryptamine) 5-HT7 receptor (Homo sapiens, UniProt P34969). Description: Serotonin 5-HT7 radioligand binding assay ([3H]LSD). Particulars: 5.5 nM [3H]LSD, CHO cells; for inhibition at 0.1 µM: compound at 0.1 μM, read-out: Percent Inhibition of ligand binding, Serotonin (0.1 μM) 5-HT7. The method, then:
Compounds of invention were incubated with 5.5 nM [^3H] Lysergic acid diethylamide (LSD) for 2 h at 25° C. […] Receptor proteins were filtered and washed, the filters were then counted to determine [^3H]LSD specifically bound. Compounds were screened at 1 μM or lower, using 1% DMSO as vehicle. Biochemical assay results are presented as the percent inhibition of specific binding in Table 4.

Test [5] deals with T3, human recombinant serotonin (5-Hydroxytryptamine) 5-HT2C receptor (Homo sapiens, UniProt P28335).
T3 construct: expressed in transfected cells; host or cells: Chinese hamster ovary (CHO-K1) cells
T3 sequence (P28335 33-458): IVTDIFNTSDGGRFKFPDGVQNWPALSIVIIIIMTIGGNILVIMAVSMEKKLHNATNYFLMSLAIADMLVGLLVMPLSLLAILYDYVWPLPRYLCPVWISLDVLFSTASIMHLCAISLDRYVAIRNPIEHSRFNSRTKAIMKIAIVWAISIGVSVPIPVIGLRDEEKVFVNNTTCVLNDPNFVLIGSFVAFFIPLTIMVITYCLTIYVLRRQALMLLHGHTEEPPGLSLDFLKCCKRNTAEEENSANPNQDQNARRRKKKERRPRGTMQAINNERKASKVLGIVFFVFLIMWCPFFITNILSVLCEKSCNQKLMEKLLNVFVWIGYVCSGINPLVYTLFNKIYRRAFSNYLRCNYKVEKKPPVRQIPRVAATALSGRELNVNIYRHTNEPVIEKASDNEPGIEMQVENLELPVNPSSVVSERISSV
As to the kind of experiment: Serotonin 5-HT2C radioligand binding assay ([3H]Mesulergine). Particulars: 1 nM [3H]Mesulergine, CHO-K1 cells; for inhibition at 0.1 µM: compound at 0.1 μM, read-out: Percent Inhibition of ligand binding, Serotonin (0.1 μM) 5-HT2C. The procedure: Compounds of the invention were incubated with 1 nM [^3H]Mesulergine for 60 min at 25° C. Non-specific binding was estimated in the presence of 1 μM Mianserin. Receptor proteins were filtered and washed, the filters were then counted to determine [^3H]Mesulergine specifically bound. Compounds were screened at 1 μM or lower, using 1% DMSO as vehicle. Biochemical assay results are presented as the percent inhibition of specific binding in Table 4.

For test [6], the target named is T4, human recombinant serotonin (5-Hydroxytryptamine) 5-HT6 receptor (Homo sapiens, UniProt P50406).
T4 construct: expressed in transfected cells; host or cells: human HeLa cells
Description: Serotonin 5-HT6 radioligand binding assay ([3H]LSD). Particulars: HeLa cells; for inhibition at 0.1 µM: compound at 0.1 μM, read-out: Percent Inhibition of ligand binding, Serotonin (0.1 μM) 5-HT6. The procedure:
Compounds of the invention were incubated with 1.5 nM [3H]Lysergic acid diethylamide (LSD) for 120 min at 37° C. […] Receptor proteins were filtered and washed, the filters were then counted to determine [3H]LSD specifically bound. Compounds were screened at 1 μM or lower, using 1% DMSO as vehicle. Biochemical assay results are presented as the percent inhibition of specific binding in Table 4.

Test [7] addresses T5, human recombinant adrenergic α2A receptor (Homo sapiens, UniProt P08913).
T5 construct: expressed in transfected cells; host or cells: insect Sf9 cells
T5 sequence (P08913 1-465): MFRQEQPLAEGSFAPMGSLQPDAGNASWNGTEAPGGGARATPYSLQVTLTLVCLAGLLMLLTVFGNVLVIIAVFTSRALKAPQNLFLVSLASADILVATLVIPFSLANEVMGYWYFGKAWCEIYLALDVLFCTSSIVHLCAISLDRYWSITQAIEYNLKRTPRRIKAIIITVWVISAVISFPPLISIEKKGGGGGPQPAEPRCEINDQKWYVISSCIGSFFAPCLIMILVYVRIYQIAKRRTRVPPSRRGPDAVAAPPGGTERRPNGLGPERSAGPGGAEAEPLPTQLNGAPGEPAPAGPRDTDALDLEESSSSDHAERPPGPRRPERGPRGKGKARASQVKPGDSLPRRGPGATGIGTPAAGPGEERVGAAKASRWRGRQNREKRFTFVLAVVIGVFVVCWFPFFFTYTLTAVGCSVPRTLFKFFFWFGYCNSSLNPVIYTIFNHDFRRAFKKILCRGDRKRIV
Description: Adrenergic α2A radioligand binding assay ([3H]MK-912). Conditions: compound at 1 μM, 1 nM [3H]MK-912, insect Sf9 cells. The procedure:
To evaluate in radioligand binding assays the activity of compounds of the invention, human recombinant adrenergic α2A receptor expressed in insect Sf9 cells (Uhlen S et al. J. Pharmacol. Exp. Ther. 271:1558, 1994) in a modified Tris-HCl buffer (50 mM Tris-HCl, pH 7.4, 12.5 mM MgCl2, 2 mM EDTA) was used. Compounds of invention were incubated with 1 nM [^3H]MK-912 for 60 min at 25° C. MK912 is (2S-trans)-1,3,4,5′,6,6′,7,12b-octahydro-1′,3′-dimethyl-spiro[2H-benzofuro[2,3-a]quinolizine-2,4′(1′H)-pyrimidin]-2′(3′H)-one hydrochloride Non-specific binding was estimated in the presence of 10 μM WB-4101 (2-(2,6-dimethoxyphenoxyethyl)aminomethyl-1,4-benzodioxane hydrochloride). Receptor proteins were filtered and washed, the filters were then counted to determine [^3H]MK-912 specifically bound.

The target of test [8] is human recombinant dopamine D2L receptor (Homo sapiens, UniProt P14416). Description: Dopamine D2L radioligand binding assay ([3H]Spiperone). Particulars: compound at 1 μM, 0.16 nM [3H]Spiperone, CHO cells, read-out: Percent Inhibition of ligand binding, Dopamine (1μM). The procedure: Compounds of the invention were incubated with 0.16 nM [^3H]Spiperone for 120 min at 25° C. Non-specific binding was estimated in the presence of 10 μM Haloperidol. Receptor proteins were filtered and washed, the filters were then counted to determine [^3H]Spiperone specifically bound. Compounds were screened at 1 μM or lower, using 1% DMSO as vehicle. Biochemical assay results are presented as the percent inhibition of specific binding in Table 3.
Chain of human recombinant dopamine D2L receptor (P14416 whole entry): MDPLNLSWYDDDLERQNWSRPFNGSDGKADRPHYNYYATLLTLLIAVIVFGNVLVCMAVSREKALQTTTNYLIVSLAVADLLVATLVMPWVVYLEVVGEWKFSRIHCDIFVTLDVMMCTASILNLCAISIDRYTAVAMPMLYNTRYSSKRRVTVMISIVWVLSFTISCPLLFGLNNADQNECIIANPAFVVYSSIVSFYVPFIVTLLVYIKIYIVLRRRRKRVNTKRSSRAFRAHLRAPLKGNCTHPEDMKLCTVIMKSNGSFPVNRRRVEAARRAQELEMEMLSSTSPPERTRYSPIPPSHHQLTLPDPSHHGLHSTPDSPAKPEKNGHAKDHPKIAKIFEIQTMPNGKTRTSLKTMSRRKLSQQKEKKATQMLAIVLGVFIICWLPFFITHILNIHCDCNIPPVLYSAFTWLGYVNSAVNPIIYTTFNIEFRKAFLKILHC

Chain of human recombinant histamine H1 receptor (P35367 whole entry): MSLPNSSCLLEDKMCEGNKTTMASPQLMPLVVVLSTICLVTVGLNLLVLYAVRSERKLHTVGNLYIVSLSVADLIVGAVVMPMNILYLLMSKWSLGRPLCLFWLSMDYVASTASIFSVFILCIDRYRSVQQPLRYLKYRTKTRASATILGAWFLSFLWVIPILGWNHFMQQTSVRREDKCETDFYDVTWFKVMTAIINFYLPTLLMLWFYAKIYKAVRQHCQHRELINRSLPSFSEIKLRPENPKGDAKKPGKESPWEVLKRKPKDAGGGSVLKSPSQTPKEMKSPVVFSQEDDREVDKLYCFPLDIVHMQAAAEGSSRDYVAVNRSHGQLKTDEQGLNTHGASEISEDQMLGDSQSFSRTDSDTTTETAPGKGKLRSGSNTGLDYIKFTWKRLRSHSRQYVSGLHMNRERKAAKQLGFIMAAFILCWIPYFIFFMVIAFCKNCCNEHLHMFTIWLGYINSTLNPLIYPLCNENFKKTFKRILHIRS
T4 sequence (P50406 whole entry): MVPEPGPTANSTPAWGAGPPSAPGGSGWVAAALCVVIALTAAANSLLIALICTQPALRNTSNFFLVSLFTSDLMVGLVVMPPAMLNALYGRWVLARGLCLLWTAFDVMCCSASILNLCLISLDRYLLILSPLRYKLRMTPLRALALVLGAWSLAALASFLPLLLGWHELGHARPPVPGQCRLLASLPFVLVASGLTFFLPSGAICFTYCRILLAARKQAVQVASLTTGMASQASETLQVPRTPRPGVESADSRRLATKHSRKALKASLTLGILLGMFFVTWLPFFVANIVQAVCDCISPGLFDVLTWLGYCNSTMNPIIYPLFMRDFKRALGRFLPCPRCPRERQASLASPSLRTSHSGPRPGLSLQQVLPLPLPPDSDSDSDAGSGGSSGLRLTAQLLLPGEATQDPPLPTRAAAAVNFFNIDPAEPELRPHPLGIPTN
T2 sequence (P28223 whole entry): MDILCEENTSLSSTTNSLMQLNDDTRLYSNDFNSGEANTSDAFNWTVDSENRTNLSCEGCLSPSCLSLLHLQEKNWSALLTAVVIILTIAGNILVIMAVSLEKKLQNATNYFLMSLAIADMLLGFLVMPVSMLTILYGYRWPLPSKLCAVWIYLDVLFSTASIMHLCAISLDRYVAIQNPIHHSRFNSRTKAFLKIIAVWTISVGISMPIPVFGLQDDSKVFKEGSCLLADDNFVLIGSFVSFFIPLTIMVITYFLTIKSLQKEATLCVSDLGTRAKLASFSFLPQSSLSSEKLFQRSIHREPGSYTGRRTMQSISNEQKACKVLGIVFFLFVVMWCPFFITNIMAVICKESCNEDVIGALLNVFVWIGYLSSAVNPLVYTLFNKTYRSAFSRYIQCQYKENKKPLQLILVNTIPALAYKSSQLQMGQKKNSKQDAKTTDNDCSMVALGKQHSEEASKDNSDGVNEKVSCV
Chain of human recombinant serotonin (5-Hydroxytryptamine) 5-HT7 receptor (P34969 whole entry): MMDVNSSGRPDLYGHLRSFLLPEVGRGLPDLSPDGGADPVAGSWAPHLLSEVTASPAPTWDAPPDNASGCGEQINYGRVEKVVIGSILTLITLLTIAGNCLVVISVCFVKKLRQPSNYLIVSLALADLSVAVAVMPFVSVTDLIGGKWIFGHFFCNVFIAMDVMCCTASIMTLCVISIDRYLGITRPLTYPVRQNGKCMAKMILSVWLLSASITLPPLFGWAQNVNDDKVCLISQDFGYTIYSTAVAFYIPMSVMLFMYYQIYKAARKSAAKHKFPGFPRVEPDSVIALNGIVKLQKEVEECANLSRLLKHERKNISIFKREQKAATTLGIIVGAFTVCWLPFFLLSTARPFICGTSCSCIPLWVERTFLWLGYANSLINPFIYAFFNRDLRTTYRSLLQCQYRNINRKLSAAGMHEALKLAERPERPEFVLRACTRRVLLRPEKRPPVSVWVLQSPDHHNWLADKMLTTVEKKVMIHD

Take `COc1ccc(C(C)(O)Cn2c3c(c4cc(C)ccc42)CN(C)CC3)cc1` (centres unmarked) [Compound 1-4, 1-(2,8-dimethyl-3,4-dihydro-1H-pyrido[4,3-b]indol-5(2H)-yl)-2-(4-methoxyphenyl)propan-2-ol]: the inhibition at 1 µM in test [1] was determined as 57%; in test [3], 97%. Also, the “Binding Data (% Inhibition) Histamine Binding (1μM) H1” value in test [2] is given as 43%. Moreover, the “Percent Inhibition of ligand binding, Serotonin (1 μM) 5-HT2A” value in test [3] is 100%. Besides, in test [4] (compound at 1 μM), the “Percent Inhibition of ligand binding, Serotonin (1 μM) 5-HT7” value turned out to be 98%. For the same compound, the “Percent Inhibition of ligand binding, Serotonin (1 μM) 5-HT2C” value in test [5] (compound at 1 μM) is 98%. The “Percent Inhibition of ligand binding, Serotonin (1 μM) 5-HT6” value in test [6] (compound at 1 μM) stood at 87%.

Take `CCCCC(O)(Cn1c2c(c3cc(Cl)ccc31)CN(C)CC2)c1ccc(F)cc1` (centres unmarked) [Compound 1-64, 1-(8-chloro-2-methyl-3,4-dihydro-1H-pyrido[4,3-b]indol-5(2H)-yl)-2-(4-fluorophenyl)hexan-2-ol]: the “Percent Inhibition of ligand binding, Serotonin (1 μM) 5-HT2A” value in test [3] amounted to 98%. Moreover, the “Percent Inhibition of ligand binding, Adrenergic (1 μM) a2A” value in test [7] is 88%.

For `Cc1ccc(CCn2c3c(c4cc(Cl)ccc42)CN(C)C(C)C3)cn1` (centres unmarked) [Compound 1-48, 8-chloro-2,3-dimethyl-5-(2-(6-methylpyridin-3-yl)ethyl)-2,3,4,5-tetrahydro-1H-pyrido[4,3-b]indole], the values for the inhibition at 1 µM in test [8] and in test [2] were 12% and 101%, respectively. In addition, the inhibition at 0.1 µM was 30% in test [3], 86% in test [4], 40% in test [5] and 50% in test [6].

As to `Cc1ccc2c(c1)c1c(n2CC2(c3ccncc3)CC2)CCN(C)C1` [Compound 1-50, 2,8-dimethyl-5-((1-(pyridin-4-yl)cyclopropyl)methyl)-2,3,4,5-tetrahydro-1H-pyrido[4,3-b]indole], the inhibition at 1 µM came to 47% in test [8] and 97% in test [2]. Further, the inhibition at 0.1 µM in test [3] is 77%; in test [4], 95%; in test [5], -1%; in test [6], 30%.

Regarding `CCCCC(O)(Cn1c2c(c3cc(Cl)ccc31)CN(C)CC2)c1ccc(F)cc1` (centres unmarked) [Compound 1-7, 1-(8-chloro-2-methyl-3,4-dihydro-1H-pyrido[4,3-b]indol-5(2H)-yl)-2-(4-fluorophenyl)hexan-2-ol], the inhibition at 1 µM amounted to 98% in test [3] and 88% in test [7] (read-out: Percent Inhibition of ligand binding, Adrenergic (1 μM) a2A).

The values above are taken from US9255094B2, “Pyrido[4,3-B]indoles and methods of use” (Medivation Technologies, Inc., priority 2009, dated 2016).
